Activity calls are given as the source filed them. No cut-off for these calls is given here. A value given as a limit tells only on which side of the number the result lay.

From ChEMBL document CHEMBL4725238, “Methylene blue-based 7-nitro-1,2,3-benzoxadiazole NIR fluorescent probe triggered by HS” (Bioorg Med Chem Lett, 2020) come the findings set out here.

Data set [1] is described as follows: Cytotoxicity against human HCT-116 cells assessed as cell viability up to 50 uM incubated for 24 hrs by CCK8 assay relative to control. Type of data set: cell-based. The settings on record: read-out: Activity.
Data set [2] can be described thus: Cysteine reactivity in pH 7 C2H5OH/PBS assessed as change in fluorescence at 50 uM.
A short description of data set [3]: Hydrogen sulphide reactivity in pH 7 C2H5OH/PBS assessed as change in fluorescence at 50 uM.
Data set [4] can be described thus: Zinc reactivity in pH 7 C2H5OH/PBS assessed as change in fluorescence at 50 uM.
Data set [5] in a line: Drug accumulation in human HCT116 cells up to 100 uM in presence of Na2S. The settings on record: hct-116. Format: ADME, cell-based.
A short description of data set [6]: Cytotoxicity against human HCT-116 cells assessed as cell viability at 10 uM incubated for 24 hrs by CCK8 assay relative to control. Type of data set: cell-based. The settings on record: read-out: Activity.
Data set [7] in a line: Nitrate reactivity in pH 7 C2H5OH/PBS assessed as change in fluorescence at 50 uM.
Data set [8] can be described thus: Bromide reactivity in pH 7 C2H5OH/PBS assessed as change in fluorescence at 50 uM.
Data set [9] is described as follows: Sodium reactivity in pH 7 C2H5OH/PBS assessed as change in fluorescence at 50 uM.
Data set [10] in a line: Acetate reactivity in pH 7 C2H5OH/PBS assessed as change in fluorescence at 50 uM.
Data set [11] is described as follows: Sulfate reactivity in pH 7 C2H5OH/PBS assessed as change in fluorescence at 50 uM.
The nature of data set [12]: […] reactivity in pH 7 C2H5OH/PBS assessed as change in fluorescence at 50 uM.
A short description of data set [13]: Thiocyanate reactivity in pH 7 C2H5OH/PBS assessed as change in fluorescence at 50 uM.
Data set [14] is described as follows: Phosphoric acid reactivity in pH 7 C2H5OH/PBS assessed as change in fluorescence at 50 uM.
A short description of data set [15]: Bicarbonate reactivity in pH 7 C2H5OH/PBS assessed as change in fluorescence at 50 uM.
The nature of data set [16]: Potassium reactivity in pH 7 C2H5OH/PBS assessed as change in fluorescence at 50 uM.
Data set [17] in a line: Chloride reactivity in pH 7 C2H5OH/PBS assessed as change in fluorescence at 50 uM.
Data set [18] can be described thus: Glutathione reactivity in pH 7 C2H5OH/PBS assessed as change in fluorescence at 50 uM.
Data set [19] can be described thus: Iodide reactivity in pH 7 C2H5OH/PBS assessed as change in fluorescence at 50 uM.

As to `CN(C)c1ccc2c(c1)Sc1cc(N(C)C)ccc1N2c1ccc([N+](=O)[O-])c2nonc12`, the viability at 24 h in [1] was determined as 64%. The result in data set [2], in data set [3] and in data set [18] was Active. Also, the result in [4], in data set [7], in [8], in [9], in data set [10] and in data set [11] was inactive. Further, the result in data set [12], in [13], in data set [14], in data set [15], in [16] and in data set [17] was inactive. For the same molecule, the outcome in data set [19] was inactive. Further, in [5], the Drug uptake result is reported as “Active”. Besides, the viability at 24 h, 10 µM in data set [6] is greater than 85%.
